Laboratory results as given in patent US5981517A, “Androstene derivatives” (priority 1997, dated 1999).

Tests used:
[1] = target: T1, rat lung glucocorticoid receptor (Rattus norvegicus, UniProt P06536); experiment: Receptor binding studies ([3H]triamcinolone acetonide displacement); design: Receptor binding affinity: scale not given here; conditions: for RBA: further receptor binding studies (Table X), dexamethasone = 100, * mean ± SE of 3-5 results; for IC50: rat lung cytosol, 10 nM [3H]triamcinolone acetonide, 2 h, 24° C., read-out: IC50; for IC50 / Relative binding affinity (RBA): with Δ1-cortienic acid; for Relative binding affinity (RBA): with respect to dexamethasone (RBA = 100)
T1 construct: Immediately after resection of the lungs, the tissue was frozen in ice; The cytosol was prepared; from tissue; host or cells: lung cytosol of adrenalectomized male Sprague-Dawley rats
T1 sequence (P06536 1-795): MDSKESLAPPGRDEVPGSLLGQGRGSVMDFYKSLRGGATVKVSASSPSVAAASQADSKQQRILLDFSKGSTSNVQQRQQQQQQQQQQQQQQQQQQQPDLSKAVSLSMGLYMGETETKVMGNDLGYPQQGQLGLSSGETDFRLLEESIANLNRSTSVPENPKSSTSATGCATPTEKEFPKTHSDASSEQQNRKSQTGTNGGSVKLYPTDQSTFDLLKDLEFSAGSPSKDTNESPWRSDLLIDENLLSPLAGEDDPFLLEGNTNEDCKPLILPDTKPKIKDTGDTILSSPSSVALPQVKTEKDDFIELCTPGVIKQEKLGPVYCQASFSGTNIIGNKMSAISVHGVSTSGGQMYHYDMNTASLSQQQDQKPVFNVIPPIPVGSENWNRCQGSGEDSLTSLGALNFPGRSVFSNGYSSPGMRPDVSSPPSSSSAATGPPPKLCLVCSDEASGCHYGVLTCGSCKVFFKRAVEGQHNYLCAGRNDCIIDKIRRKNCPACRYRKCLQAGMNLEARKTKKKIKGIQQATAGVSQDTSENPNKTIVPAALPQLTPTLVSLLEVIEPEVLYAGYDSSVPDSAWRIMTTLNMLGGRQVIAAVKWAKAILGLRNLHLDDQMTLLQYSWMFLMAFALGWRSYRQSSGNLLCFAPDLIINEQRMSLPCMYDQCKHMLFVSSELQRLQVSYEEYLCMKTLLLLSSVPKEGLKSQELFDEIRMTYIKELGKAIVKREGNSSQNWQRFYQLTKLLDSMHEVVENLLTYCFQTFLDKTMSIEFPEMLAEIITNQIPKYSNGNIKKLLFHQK
Protocol: Male Sprague-Dawley rats, each weighing 150 to 200 g, were used 6 days after adrenalectomy. Rats were sacrificed by decapitation. Immediately after resection of the lungs, the tissue was frozen in ice. […] Portions (5 ml) of the cytosol were frozen in liquid nitrogen and stored at -80° C.
The cytosol was thawed in a water bath and diluted with 1 part of incubation buffer containing a 15 mM concentration of diisopropyl fluorophosphate. […] After a 2 hour incubation period at room temperature (24° C.), the unbound steroid was removed by addition of a 2% suspension of activated charcoal in incubation buffer (400 μL). The mixture was incubated for 5 minutes at room temperature and then was centrifuged at about 10,000 g for 3 minutes in the microcentrifuge. The radioactivity (cpm) in the supernatant (400 μL) was determined by liquid scintillation counting.
The data is fitted to the following logistic function:
B=T-T * C^N /(C^N +IC50^N)+NS,
where B=CPM in the presence of competitor, T=CPM in the absence of competitor, C=competitor concentration, N=Hill slope factor, and NS=cpm under non-specific binding conditions.
For the representative compound of the invention B, receptor binding affinity was investigated with and without Δ^1 -cortienic acid in the incubation solution to study the effect of Δ^1 -cortienic acid on the receptor binding.
Further studies to evaluate the relative receptor binding affinities of compounds of the invention, other compounds of formula (VII) hereinabove and well-known anti-inflammatory steroids were undertaken, using the methods described in the RECEPTOR BINDING STUDIES set forth above. […] For comparison purposes, the following compounds having formula (VII) above were also tested: […]

[2] = system: forearms of a human volunteer; experiment: Further human vasoconstriction testing, Method 1; assay type: in vivo; further: key: 0: normal skin; 1: slight pallor of indistinct outline; 2: pallor with at least two corners outlined; 3: even pallor with a clear outline of the application sites; 4: very intense pallor
In short: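 Each mixture, 50 μL in ethanol, was loaded onto circular 8 mm patches. Once the ethanol had evaporated, the patches were placed on a human volunteer's forearms under a water-impervious film for 3 hr. After the patches were removed, vasoconstriction was scored at intervals from 0 (normal skin) to 4 (very intense pallor). The same individual received all tests, run 2-4 times per compound.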

in vitro = in vitro ADME; conditions: rat, lung cytosol
Protocol: To determine that the compounds of the invention can be stable during the incubation period, the test compounds A, B, C, and D were investigated for their stabilities at the incubation conditions, which are room temperature and 2 hours, for receptor binding studies. The frozen cytosol which was made for the receptor binding study was thawed in a water bath and diluted with 1 part of incubation buffer (10 mM Tris/HCl, 10 mM sodium molybdate, and 2 mM 1,4-dithiothreitol) containing a 15 mM concentration of enzyme inhibitor, diisopropyl fluorophosphate. Portions (560 μL) of the diluted cytosol were added to centrifuge tubes containing 80 μL portions of blank incubation buffer instead of volume of tracer ([^3 H]triamcinolone acetonide) which would be used in the receptor binding study (RBS), 80 μL of solution of a Δ^1 -cortienic acid (0.1 mM) in buffer (the final concentration of Δ^1 -cortienic acid in the incubation medium was […]), and 80 μL of 100,000 nM of concentrations of test compounds in ethanol to give a final concentration of 10,000 nM. This mixture was kept at room temperature for 2 hours. Samples of 0.1 mL were taken at appropriate time intervals (0, 0.5, 1, 1.5, 2 hours) and were mixed with 0.2 mL of acetonitrile containing 5% DMSO. Each mixture was centrifuged and the supernatant were injected in the HPLC.
Male Sprague-Dawley rats, each weighing 150 to 200 g, were used 6 days after adrenalectomy. Rats were sacrificed by decapitation. Immediately after resection of the lungs, the tissue was frozen in ice. The cytosol was prepared using a slight modification of a previously described method (Dahlberg, 1984); After addition of 6 volumes of ice-cold incubation buffer (10 mM Tris/HCl, 10 mM sodium molybdate, and 2 mM 1,4-dithiothreitol), the tissue was homogenized with the Virtis 45 homogenizer at full speed, for 4 periods of 10 seconds with a 10-second cooling period between each step. The homogenate was centrifuged at 35,000 g for 1 hour at 4° C. in a Beckman ultracentrifuge L8-70M equipped with a T170 rotor. Portions (5 ml) of the cytosol were frozen in liquid nitrogen and stored at -80° C.

[3] = 24 Hours, 1 hour re-occlusion at 20-21 hours, 0.01 mM
[4] = 24 Hours, 1 hour re-occlusion at 20-21 hours, 0.05 mM
[5] = 24 Hours, 1 hour re-occlusion at 20-21 hours, 0.1 mM
[6] = 24 Hours, 1 hour re-occlusion at 20-21 hours, 0.5 mM

Row | Structure (SMILES) | RBA [1] | Vasoconstriction activity ([2]; 3 Hours, 0.01 mM) | Vasoconstriction activity ([2]; 3 Hours, 0.05 mM) | Vasoconstriction activity ([2]; 3 Hours, 0.1 mM) | Vasoconstriction activity ([2]; 3 Hours, 0.5 mM) | Vasoconstriction activity ([2]; 3 Hours, 1 mM) | Vasoconstriction activity ([2]; 3 Hours, 5 mM) | Vasoconstriction activity ([2]; 3 Hours, 10 mM) | Vasoconstriction activity ([2]; 20 Hours, 0.01 mM) | Vasoconstriction activity ([2]; 20 Hours, 0.05 mM) | Vasoconstriction activity ([2]; 20 Hours, 0.1 mM) | Vasoconstriction activity ([2]; 20 Hours, 0.5 mM) | Vasoconstriction activity ([2]; 20 Hours, 1 mM) | Vasoconstriction activity ([2]; 20 Hours, 5 mM) | Vasoconstriction activity ([2]; 20 Hours, 10 mM) | Vasoconstriction activity [2, 3] | Vasoconstriction activity [2, 4] | Vasoconstriction activity [2, 5] | remaining at 2 h (in vitro) [%] | Relative binding affinity (RBA) [1] | also measured
1 | CCCCC(=O)O[C@]1(C(=O)CO)[C@@H](C)C[C@H]2[C@@H]3CCC4=CC(=O)C=C[C@]4(C)[C@@]3(F)[C@@H](O)C[C@@]21C [Betamethasone 17-valerate, reference compound] | 1742 ± 130 | 0 | 1 | 1 | 2 | 3 | 3 | 4 | 0 | 1 | 1 | 1 | 1 | 1 | 2 | 1 | 1 | 2 |  |  | Vasoconstriction activity [2, 6]: 2
2 | COC(=O)[C@@]1(OC(=O)C(Cl)Cl)CC[C@H]2[C@@H]3CCC4=CC(=O)C=C[C@]4(C)[C@H]3[C@@H](O)C[C@@]21C [Compound A, Methyl 17α-dichloroacetoxy-11β-hydroxyandrosta-1,4-dien-3-one-17β-carboxylate] | 165 |  |  |  |  |  |  | 4 |  |  |  |  |  |  | 2 |  |  |  | 75 | 165 | remaining at 2 h, 10 µM (in vitro): 75.1%; IC50 [1]: 49.5 nM
3 | CCOC(=O)[C@@]1(OC(=O)C(Cl)Cl)CC[C@H]2[C@@H]3CCC4=CC(=O)C=C[C@]4(C)[C@H]3[C@@H](O)C[C@@]21C [Compound B, Ethyl 17α-dichloroacetoxy-11β-hydroxyandrosta-1,4-dien-3-one-17β-carboxylate] | 222 ± 16 | 0 | 1 | 1 | 2 | 3 | 3 | 4 | 0 | 0 | 1 | 1 | 1 | 1 | 2 | 1 | 1 | 2 | 75 | 204 | remaining at 2 h, 10 µM (in vitro): 100%; Receptor binding affinity ([1]; With Δ1-cortienic acid (Table IX)): 204; Receptor binding affinity ([1]; Without Δ1-cortienic acid (Table IX)): 181; IC50 [1]: 40.1 nM; Vasoconstriction activity [2, 6]: 2
4 | CC(C)OC(=O)[C@@]1(OC(=O)C(Cl)Cl)CC[C@H]2[C@@H]3CCC4=CC(=O)C=C[C@]4(C)[C@H]3[C@@H](O)C[C@@]21C [Compound C, Isopropyl 17α-dichloroacetoxy-11β-hydroxyandrosta-1,4-dien-3-one-17β-carboxylate] | 117 |  |  |  |  |  |  | 4 |  |  |  |  |  |  | 1 |  |  |  | > 90 | 117 | remaining at 2 h, 10 µM (in vitro): 100%; IC50 [1]: 69.8 nM
5 | C[C@]12C=CC(=O)C=C1CC[C@@H]1[C@@H]2[C@@H](O)C[C@@]2(C)[C@H]1CC[C@]2(OC(=O)C(Cl)Cl)C(=O)OCCl [Compound D, Chloromethyl 17α-dichloroacetoxy-11β-hydroxyandrosta-1,4-dien-3-one-17β-carboxylate] | 684 |  |  |  |  |  |  | 4 |  |  |  |  |  |  | 1 |  |  |  | 70 | 684 | remaining at 2 h, 10 µM (in vitro): 70.6%; IC50 [1]: 11.9 nM
6 | COC(=O)[C@@]1(OC(=O)C(Cl)Cl)[C@H](C)C[C@H]2[C@@H]3CCC4=CC(=O)C=C[C@]4(C)[C@@]3(F)[C@@H](O)C[C@@]21C [Compound I, methyl 17α-dichloroacetoxy-9α-fluoro-11β-hydroxy-16α-methylandrosta-1,4-dien-3-one-17β-carboxylate] | 1745 ± 185 | 1 | 2 | 2 | 3 | 4 | 4 | 4 | 0 | 1 | 1 | 1 | 1 | 2 |  | 1 | 2 | 3 | > 90 | 495 | Vasoconstriction activity [2, 6]: 3
7 | CCOC(=O)[C@@]1(OC(=O)C(Cl)Cl)[C@H](C)C[C@H]2[C@@H]3CCC4=CC(=O)C=C[C@]4(C)[C@@]3(F)[C@@H](O)C[C@@]21C [J, ethyl 17α-dichloroacetoxy-9α-fluoro-11β-hydroxy-16α-methylandrosta-1,4-dien-3-one-17β-carboxylate] | 687 ± 49 | 0 | 1 | 2 | 2 | 3 | 3 | 4 | 0 | 0 | 0 | 1 | 1 | 1 | 2 | 1 | 1 | 2 | > 90 |  | Vasoconstriction activity [2, 6]: 2
